Data as given in US20230127326A1, “C3-SUBSTITUTED 1H-PYRAZOLO[4,3-d]PYRIMIDINE COMPOUNDS AS TOLL-LIKE RECEPTOR 7 (TLR7) AGONISTS” (BRISTOL-MYERS SQUIBB COMPANY, priority 2020, published 2023).

How the values were obtained:
human TLR7 = biological target: T1, human TLR7 (Homo sapiens, UniProt Q9NYK1); assay: Human TLR7 agonist activity reporter assay (HEK-Blue TLR7 cells, SEAP reporter); assay type: cell-based; settings: 18 h treatment, average where assay was performed multiple times, read-out: hTLR7 Agonism EC50
T1 construct: host or cells: HEK-Blue TLR7 cells (engineered human embryonic kidney cells)
T1 sequence (Q9NYK1 27-1049): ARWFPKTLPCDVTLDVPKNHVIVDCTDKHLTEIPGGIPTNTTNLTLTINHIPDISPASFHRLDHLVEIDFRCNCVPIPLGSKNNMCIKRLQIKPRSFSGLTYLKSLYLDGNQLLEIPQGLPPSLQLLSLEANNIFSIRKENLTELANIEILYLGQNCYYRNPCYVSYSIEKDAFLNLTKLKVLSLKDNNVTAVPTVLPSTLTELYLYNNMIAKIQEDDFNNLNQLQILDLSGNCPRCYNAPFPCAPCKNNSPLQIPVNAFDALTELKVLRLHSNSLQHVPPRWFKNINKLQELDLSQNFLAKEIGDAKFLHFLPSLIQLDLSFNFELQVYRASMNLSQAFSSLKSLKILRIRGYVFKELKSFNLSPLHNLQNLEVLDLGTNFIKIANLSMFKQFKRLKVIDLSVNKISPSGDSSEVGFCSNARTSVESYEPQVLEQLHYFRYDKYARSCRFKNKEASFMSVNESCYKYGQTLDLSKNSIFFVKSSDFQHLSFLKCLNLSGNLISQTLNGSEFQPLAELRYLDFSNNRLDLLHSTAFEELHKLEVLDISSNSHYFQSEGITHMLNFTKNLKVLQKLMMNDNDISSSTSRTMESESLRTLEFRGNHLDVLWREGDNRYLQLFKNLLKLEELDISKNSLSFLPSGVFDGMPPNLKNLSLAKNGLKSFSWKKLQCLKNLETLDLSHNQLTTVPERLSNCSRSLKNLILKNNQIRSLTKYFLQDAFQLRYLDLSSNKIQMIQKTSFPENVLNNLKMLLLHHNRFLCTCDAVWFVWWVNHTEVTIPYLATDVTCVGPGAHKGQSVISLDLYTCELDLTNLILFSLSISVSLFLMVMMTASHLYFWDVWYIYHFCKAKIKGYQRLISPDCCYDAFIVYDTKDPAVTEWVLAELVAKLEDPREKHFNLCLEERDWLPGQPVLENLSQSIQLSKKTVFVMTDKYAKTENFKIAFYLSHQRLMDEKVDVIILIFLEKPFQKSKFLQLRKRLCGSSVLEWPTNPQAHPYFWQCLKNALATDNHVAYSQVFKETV
Description: This procedure describes a method for assaying human TLR7 (hTLR7) agonist activity of the compounds disclosed in this specification.
HEK-Blue™ TLR7 cells were added to each well of a 384-well tissue-culture plate (15,000 cells per well) and incubated 16-18 h at 37° C., 5% CO2. Compounds (100 nl) were dispensed into wells containing the HEK-Blue™ TLR cells and the treated cells were incubated at 37° C., 5% CO2. After 18 h treatment ten microliters of freshly-prepared Quanti-Blue™ reagent (Invivogen) was added to each well, incubated for 30 min (37° C., 5% CO2) and SEAP levels measured using an Envision plate reader (OD=620 nm). The half maximal effective concentration values (EC50; compound concentration which induced a response halfway between the assay baseline and maximum) were calculated.

CD69 = assay: Induction of CD69 in human whole blood; assay type: cell-based; settings: 17 hrs at 37° C., y-axis 100% set to 1 uM of resiquimod, average where assay was performed multiple times, read-out: hWB CD69 EC50
Description: The induction of Type I interferon (IFN) MX-1 genes and the B-cell activation marker CD69 are downstream events that occur upon activation of the TLR7 pathway. The following is a human whole blood assay that measures their induction in response to a TLR7 agonist.
Heparinized human whole blood was harvested from human subjects and treated with test TLR7 agonist compounds at 1 mM. The blood was diluted with RPMI 1640 media and Echo was used to predot 10 nL per well giving a final concentration of 1 uM (10 nL in 10 uL of blood). After mixing on a shaker for 30 sec, the plates were covered and placed in a 37° C. chamber for o/n=17 hrs. Fixing/lysis buffer was prepared (5×->1× in H2O, warm at 37° C.; Cat #BD 558049) and kept the perm buffer (on ice) for later use.
For surface markers staining (CD69): prepared surface Abs: 0.045 ul hCD14-FITC (ThermoFisher Cat #MHCD1401)+0.6 ul hCD19-ef450 (ThermoFisher Cat #48-0198-42)+1.5 ul hCD69-PE (cat #BD555531)+0.855 ul FACS buffer. Added 3 ul/well, spin 1000 rpm for 1 min and mixed on shaker for 30 sec, put on ice for 30 mins. Stop stimulation after 30 minutes with 70 uL of prewarmed 1× fix/lysis buffer and use Feliex mate to resuspend (15 times, change tips for each plate) and incubate at 37 C for 10 minutes.
Centrifuge at 2000 rpm for 5 minutes aspirate with HCS plate washer, mix on shaker for 30 sec and then wash with 70 uL in dPBS and pelleted 2×s (2000 rpm for 5 min) and 50 ul wash in FACS buffer pelleted 1×s (2000 rpm for 5 min). Mix on shaker for 30 sec. For Intracellular markers staining (MX-1): Add 50 ul of BD Perm buffer III and mix on shaker for 30 sec. Incubate on ice for 30 minutes (in the dark). Wash with 50 uL of FACS buffer 2× (spin @2300 rpm×5 min after perm) followed by mixing on shaker for 30 sec. Resuspended in 20 ul of FACS buffer containing MX1 antibody ( )(4812)-Alexa 647: Novus Biologicals #NBP2-43704AF647) 20 ul FACS bf+0.8 ul hIgG+0.04 ul MX-1. Spin 1000 rpm for 1 min, mix on shaker for 30 se and the samples were incubated at RT in the dark for 45 minutes followed by washing 2×FACS buffer (spin @2300 rpm×5 min after perm). Resuspend 20 ul (35 uL total per well) of FACS buffer and cover with foil and place in 4° C. to read the following day. Plates were read on iQuePlus. The results were loaded into toolset and […] curves are generated in curve master. The y-axis 100% is set to 1 uM of resiquimod.

| EC50 (human TLR7) | EC50 (CD69) | SMILES |
| --- | --- | --- |
| 2000 nM | 365 nM | CCCCNc1nc(N)nc2c(Br)nn(Cc3ccc(CNC4CCOCC4)cc3OC)c12 [Compound 101, 3-bromo-N7-butyl-1-[(2-methoxy-4-{[(oxan-4-yl)amino]methyl}phenyl)-methyl]-1H-pyrazolo[4,3-d]pyrimidine-5,7-diamine] |
| 210 nM | 34.5 nM | CCCCNc1nc(N)nc2c(C3CC3)nn(Cc3ccc(CNC4CCOCC4)cc3OC)c12 [Compound 102, N7-butyl-3-cyclopropyl-1-[(2-methoxy-4-{[(oxan-4-yl)amino]methyl}phenyl)-methyl]-1H-pyrazolo[4,3-d]pyrimidine-5,7-diamine] |
| 101 nM | 15.4 nM | CCCCNc1nc(N)nc2c(C)nn(Cc3ccc(CNC4CCC4)cc3OC)c12 [Compound 103, N7-butyl-1-({4-[(cyclobutylamino)methyl]-2-methoxyphenyl}methyl)-3-methyl-1H-pyrazolo[4,3-d]pyrimidine-5,7-diamine] |
| 91.3 nM | 41.8 nM | CCCCNc1nc(N)nc2c(C)nn(Cc3ccc(CNC4CCOCC4)cc3OC)c12 [Compound 104, N7-butyl-1-[(2-methoxy-4-{[(oxan-4-yl)amino]methyl}-phenyl)methyl]-3-methyl-1H-pyrazolo[4,3-d]pyrimidine-5,7-diamine] |
| 62.3 nM | 9.4 nM | CCCCNc1nc(N)nc2c(C)nn(Cc3ccc(CN4CCN(C)CC4)cc3OC)c12 [Compound 105, N7-butyl-1-({2-methoxy-4-[(4-methylpiperazin-1-yl)methyl]phenyl}methyl)-3-methyl-1H-pyrazolo[4,3-d]pyrimidine-5,7-diamine] |
| 63.3 nM | 20.6 nM | CCCCNc1nc(N)nc2c(C)nn(Cc3ccc(CN4CCN(CCO)CC4)cc3OC)c12 [Compound 106, 2-{4-[(4-{[5-amino-7-(butylamino)-3-methyl-1H-pyrazolo[4,3-d]pyrimidin-1-yl]methyl}-3-methoxy-phenyl)methyl]piperazin-1-yl}ethan-1-ol] |
| 46.5 nM | 28.4 nM | CCCCNc1nc(N)nc2c(F)nn(Cc3ccc(CNC4CCC4)cc3OC)c12 [Compound 107, N7-butyl-1-({4-[(cyclobutylamino)methyl]-2-methoxyphenyl}methyl)-3-fluoro-1H-pyrazolo[4,3-d]pyrimidine-5,7-diamine] |
| – | 1000 nM | CCCCNc1nc(N)nc2c(-c3ccccc3)nn(Cc3ccc(CNC4CCOCC4)cc3OC)c12 [Compound 113, N7-butyl-1-[(2-methoxy-4-{[(oxan-4-yl)amino]methyl}-phenyl)methyl]-3-phenyl-1H-pyrazolo[4,3-d]pyrimidine-5,7-diamine] |
| – | 1000 nM | CCCCNc1nc(N)nc2c(C(F)(F)F)nn(Cc3ccc(CNC4CCOCC4)cc3OC)c12 [Compound 117, N7-butyl-1-[(2-methoxy-4-{[(oxan-4-yl)amino]methyl}-phenyl)methyl]-3-(trifluoro-methyl)-1H-pyrazolo[4,3-d]pyrimidine-5,7-diamine] |
| 1110 nM | – | CCC[C@@H](CCO)Nc1nc(N)nc2c(C)nn(Cc3ncc(CN4CCN(CCO)CC4)cc3OC)c12 [Compound 135, (3S)-3-({5-amino-1-[(5-{[4-(2-hydroxyethyl)piperazin-1-yl]methyl}-3-methoxypyridin-2-yl)methyl]-3-methyl-1H-pyrazolo[4,3-d]pyrimidin-7-yl}amino)hexan-1-ol] |
| 163 nM | – | CCCCNc1nc(N)nc2c(C)nn(Cc3ccc(CN4CCN(CCOC)CC4)cc3OC)c12 [Compound 136, N7-butyl-1-[(2-methoxy-4-{[4-(2-methoxyethyl)piperazin-1-yl]methyl}phenyl)methyl]-3-methyl-1H-pyrazolo[4,3-d]pyrimidine-5,7-diamine] |
| 65.8 nM | – | CCCCNc1nc(N)nc2c(C)nn(Cc3ccc(CN4CCN(CC(C)(C)O)CC4)cc3OC)c12 [Compound 137, 1-{4-[(4-{[5-amino-7-(butylamino)-3-methyl-1H-pyrazolo[4,3-d]pyrimidin-1-yl]methyl}-3-methoxyphenyl)methyl]piperazin-1-yl}-2-methylpropan-2-ol] |
